Experimental data from PubChem BioAssay AID846 (PCMD, 2007).
Records with an inconclusive call do not appear. The source made the active and inactive calls. How the calls were made is not given here.

Molecular target: Coagulation factor XI (Homo sapiens) (UniProt P03951)
Experiment: factor XIa inhibitor concentration-response – biochemical, hits from 1536-well screen, dose response (AID 846)
Conditions: purified human plasma factor XIa, fluorogenic AMC substrate, 384-well, 2 h

Sequence of Coagulation factor XI (Homo sapiens) (P03951 19-387 limits assumed): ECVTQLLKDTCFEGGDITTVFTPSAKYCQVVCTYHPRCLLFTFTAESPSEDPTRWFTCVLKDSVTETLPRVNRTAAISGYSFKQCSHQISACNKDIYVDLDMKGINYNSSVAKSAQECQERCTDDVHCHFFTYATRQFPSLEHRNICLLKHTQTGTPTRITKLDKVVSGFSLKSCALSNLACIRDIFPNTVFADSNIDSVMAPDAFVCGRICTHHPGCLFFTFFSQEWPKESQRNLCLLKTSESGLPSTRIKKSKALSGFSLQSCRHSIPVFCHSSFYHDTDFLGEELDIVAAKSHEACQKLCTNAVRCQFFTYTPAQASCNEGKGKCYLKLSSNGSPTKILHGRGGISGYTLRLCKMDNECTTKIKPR
Sequence of Coagulation factor XI (Homo sapiens) (P03951 388-625 limits assumed): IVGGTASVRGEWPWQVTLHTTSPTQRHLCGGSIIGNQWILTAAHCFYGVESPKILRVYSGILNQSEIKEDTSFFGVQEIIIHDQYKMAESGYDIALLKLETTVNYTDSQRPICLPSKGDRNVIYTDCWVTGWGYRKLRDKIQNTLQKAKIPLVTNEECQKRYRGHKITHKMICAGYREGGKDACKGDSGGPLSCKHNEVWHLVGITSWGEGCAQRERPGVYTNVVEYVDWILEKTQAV

Compound	IC50
Oc1ccc(/C=N/Nc2nc(-c3cccnc3)nc3ccccc23)c(O)c1	> 50 µM (inactive)
Brc1cccc(/C=N/Nc2nn[nH]n2)c1	> 50 µM (inactive)
O=C1CC(N2CCC(c3nc4ccccc4o3)CC2)C(=O)N1c1ccc(Cl)c(C(F)(F)F)c1 (stereo not drawn)	> 50 µM (inactive)
COc1cc(/C=N/Nc2cc(C)nc(NS(=O)(=O)c3ccccc3)n2)ccc1O	> 50 µM (inactive)
CCc1ccccc1N1C(=O)CC(=O)NC1=O	> 50 µM (inactive)
C=CCOC(=O)C1=C(C)Nc2[nH]c(=O)[nH]c(=O)c2C1c1ccccc1 (stereo not drawn)	> 50 µM (inactive)
O=C1CC(Sc2ccc(Cl)cc2)C(=O)N1c1ccc2c(c1)OCCO2 (stereo not drawn)	> 50 µM (inactive)
Cc1cccc(NC(=O)c2cc(N3C(=O)CCC3=O)ccc2Cl)n1	> 50 µM (inactive)
